# Test results from patent US10597388B2, “Pyridazinone herbicides” (FMC CORPORATION, priority 2014, dated 2020).
# Legend:
# Type in all cases: in vivo
# [1] = system: ryegrass, Italian (Italian ryegrass, Lolium multiflorum); experiment: Test C greenhouse herbicide test, pre- and postemergence
# Excerpt: (§1) Seeds of plant species selected from blackgrass (Alopecurus myosuroides), ryegrass, Italian (Italian ryegrass, Lolium multiflorum), wheat (winter wheat, Triticum aestivum), galium (catchweed bedstraw, Galium aparine), corn (Zea mays), large crabgrass, large (large crabgrass, Digitaria sanguinalis), foxtail, giant (giant foxtail, Setaria faberii), johnsongrass (Sorghum halepense), lambsquarters (Chenopodium album), morningglory (Ipomoea coccinea), nutsedge, yellow (yellow nutsedge, Cyperus esculentus), pigweed (Amaranthus retroflexus), ragweed (common ragweed, Ambrosia elatior), soybean (Glycine max), barnyardgrass (Echinochloa crus-galli), oilseed rape (Brassica napus), waterhemp (common waterhemp, Amaranthus rudis), and velvetleaf (Abutilon theophrasti) were planted into a blend of loam soil and sand and treated preemergence with test chemicals formulated in a non-phytotoxic solvent mixture which included a surfactant.
# (§2) At the same time, plants selected from these crop and weed species and also chickweed (common chickweed, Stellaria media), kochia (Kochia scoparia), and oat, wild (wild oat, Avena fatua), were planted in pots containing Redi-Earth® planting medium (Scotts Company, 14111 Scottslawn Road, Marysville, Ohio 43041) comprising spaghnum peat moss, vermiculite, wetting agent and starter nutrients and treated with postemergence applications of test chemicals formulated in the same manner. Plants ranged in height from 2 to 18 cm (1- to 4-leaf stage) for postemergence treatments. Treated plants and controls were maintained in a greenhouse for 13 to 15 d, after which time all species were compared to controls and visually evaluated. Plant response ratings, summarized in Table C, are based on a scale of 0 to 100 where 0 is no effect and 100 is complete control. A dash (-) response means no test result.
# [2] = system: morningglory (Ipomoea coccinea); experiment: as above
# Excerpt: as §1, §2
# [3] = system: ragweed (common ragweed, Ambrosia elatior); experiment: as above
# Excerpt: as §1, §2
# soybean (Glycine max) = experiment: as above
# Excerpt: as §1, §2
# [4] = system: waterhemp (common waterhemp, Amaranthus rudis); experiment: as above
# Excerpt: as §1, §2
# [5] = system: oilseed rape (Brassica napus); experiment: as above
# Excerpt: as §1, §2
# [6] = system: blackgrass (Alopecurus myosuroides); experiment: as above
# Excerpt: as §1, §2
# [7] = system: pigweed (Amaranthus retroflexus); experiment: as above
# Excerpt: as §1, §2
# [8] = system: crabgrass, large (large crabgrass, Digitaria sanguinalis); experiment: as above
# Excerpt: as §1, §2
# [9] = system: lambsquarters (Chenopodium album); experiment: as above
# Excerpt: as §1, §2
# corn (Zea mays) = experiment: as above
# Excerpt: as §1, §2
# [10] = system: velvetleaf (Abutilon theophrasti); experiment: as above
# Excerpt: as §1, §2
# [11] = system: foxtail, giant (giant foxtail, Setaria faberii); experiment: as above
# Excerpt: as §1, §2
# [12] = system: johnsongrass (Sorghum halepense); experiment: as above
# Excerpt: as §1, §2
# [13] = system: oat, wild (wild oat, Avena fatua); experiment: Test C greenhouse herbicide test, postemergence
# Summary of the method: (§3)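 Seedlings are raised in pots of peat moss–vermiculite medium with starter nutrients, then receive postemergence test chemical at the 1- to 4-leaf stage. They are kept in the greenhouse 13 to 15 d and scored visually versus controls, 0 meaning no effect and 100 complete control.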
# kochia (Kochia scoparia) = experiment: Test C greenhouse herbicide test, postemergence
# Summary of the method: as §3
# [14] = Postemergence, 31 g ai/ha, 0 to 100 scale (0 no effect, 100 complete control)
# [15] = Postemergence, 125 g ai/ha, scale 0 to 100, 0 is no effect, 100 is complete control
# [16] = Postemergence, 250 g ai/ha, scale 0 to 100, 0 no effect, 100 complete control, 13 to 15 d
# [17] = Preemergence, 31 g ai/ha, scale 0 to 100, 0 is no effect, 100 is complete control
# [18] = Preemergence, 62 g ai/ha, scale 0 to 100, 0 is no effect, 100 is complete control
# [19] = Preemergence, 125 g ai/ha, scale 0 to 100, 0 is no effect, 100 is complete control
# [20] = Preemergence, 250 g ai/ha, scale 0 to 100 (0 no effect, 100 complete control)
# [21] = postemergence, 62 g ai/ha, scale 0 to 100, 0 no effect, 100 complete control
smiles,measurement,setting,value
COc1nn(C)c(=O)c(-c2c(C)ccc3ccccc23)c1O [Compound 54],"Ryegrass, Italian plant response rating",[1]; [14],50
same,"Plant response rating, Ryegrass, Italian",[1]; [15],85
same,"Plant response rating, Ryegrass, Italian",[1]; [16],80
same,"Plant response rating, Ryegrass, Italian",[1]; [17],55
same,"Plant response rating, Ryegrass, Italian",[1]; [18],50
same,"Plant response rating, Ryegrass, Italian",[1]; [19],80
same,"Ryegrass, Italian plant response rating",[1]; [20],90
same,"Ryegrass, Italian plant response rating",[1]; [21],80
same,Morningglory plant response rating,[2]; [14],95
same,"Plant response rating, Morningglory",[2]; [15],98
same,"Plant response rating, Morningglory",[2]; [16],100
same,"Plant response rating, Morningglory",[2]; [17],80
same,"Plant response rating, Morningglory",[2]; [18],90
same,"Plant response rating, Morningglory",[2]; [19],95
same,Morningglory plant response rating,[2]; [20],98
same,Morningglory plant response rating,[2]; [21],98
same,Ragweed plant response rating,[3]; [14],90
same,"Plant response rating, Ragweed",[3]; [15],95
same,"Plant response rating, Ragweed",[3]; [16],98
same,"Plant response rating, Ragweed",[3]; [17],90
same,"Plant response rating, Ragweed",[3]; [18],90
same,"Plant response rating, Ragweed",[3]; [19],95
same,Ragweed plant response rating,[3]; [20],100
same,Ragweed plant response rating,[3]; [21],95
same,Soybean plant response rating,soybean (Glycine max); [14],5
same,"Plant response rating, Soybean",soybean (Glycine max); [15],10
same,"Plant response rating, Soybean",soybean (Glycine max); [16],10
same,"Plant response rating, Soybean",soybean (Glycine max); [17],0
same,"Plant response rating, Soybean",soybean (Glycine max); [18],90
same,"Plant response rating, Soybean",soybean (Glycine max); [19],0
same,Soybean plant response rating,soybean (Glycine max); [20],20
same,Soybean plant response rating,soybean (Glycine max); [21],5
same,Waterhemp plant response rating,[4]; [14],85
same,"Plant response rating, Waterhemp",[4]; [15],95
same,"Plant response rating, Waterhemp",[4]; [16],95
same,"Plant response rating, Waterhemp",[4]; [17],98
same,"Plant response rating, Waterhemp",[4]; [18],100
same,"Plant response rating, Waterhemp",[4]; [19],100
same,Waterhemp plant response rating,[4]; [20],100
same,Waterhemp plant response rating,[4]; [21],90
same,Oilseed Rape plant response rating,[5]; [14],70
same,"Plant response rating, Oilseed Rape",[5]; [15],40
same,"Plant response rating, Oilseed Rape",[5]; [16],70
same,"Plant response rating, Oilseed Rape",[5]; [17],70
same,"Plant response rating, Oilseed Rape",[5]; [18],90
same,"Plant response rating, Oilseed Rape",[5]; [19],90
same,Oilseed Rape plant response rating,[5]; [20],100
same,Oilseed Rape plant response rating,[5]; [21],80
same,Blackgrass plant response rating,[6]; [14],15
same,"Plant response rating, Blackgrass",[6]; [15],60
same,"Plant response rating, Blackgrass",[6]; [16],40
same,"Plant response rating, Blackgrass",[6]; [17],50
same,"Plant response rating, Blackgrass",[6]; [18],55
same,"Plant response rating, Blackgrass",[6]; [19],55
same,Blackgrass plant response rating,[6]; [20],80
same,Blackgrass plant response rating,[6]; [21],5
same,Pigweed plant response rating,[7]; [14],85
same,"Plant response rating, Pigweed",[7]; [15],98
same,"Plant response rating, Pigweed",[7]; [16],100
same,"Plant response rating, Pigweed",[7]; [17],100
same,"Plant response rating, Pigweed",[7]; [18],100
same,"Plant response rating, Pigweed",[7]; [19],100
same,Pigweed plant response rating,[7]; [20],100
same,Pigweed plant response rating,[7]; [21],95
same,"Crabgrass, Large plant response rating",[8]; [14],20
same,"Plant response rating, Crabgrass, Large",[8]; [15],35
same,"Plant response rating, Crabgrass, Large",[8]; [16],55
same,"Plant response rating, Crabgrass, Large",[8]; [17],40
same,"Plant response rating, Crabgrass, Large",[8]; [18],40
same,"Plant response rating, Crabgrass, Large",[8]; [19],75
same,"Crabgrass, Large plant response rating",[8]; [20],60
same,"Crabgrass, Large plant response rating",[8]; [21],25
same,Lambsquarters plant response rating,[9]; [14],95
same,"Plant response rating, Lambsquarters",[9]; [15],100
same,"Plant response rating, Lambsquarters",[9]; [16],100
same,"Plant response rating, Lambsquarters",[9]; [17],80
same,"Plant response rating, Lambsquarters",[9]; [18],85
same,"Plant response rating, Lambsquarters",[9]; [19],80
same,Lambsquarters plant response rating,[9]; [20],80
same,Lambsquarters plant response rating,[9]; [21],95
same,Corn plant response rating,corn (Zea mays); [14],0
same,"Plant response rating, Corn",corn (Zea mays); [15],5
same,"Plant response rating, Corn",corn (Zea mays); [16],10
same,"Plant response rating, Corn",corn (Zea mays); [17],0
same,"Plant response rating, Corn",corn (Zea mays); [18],10
same,"Plant response rating, Corn",corn (Zea mays); [19],10
same,Corn plant response rating,corn (Zea mays); [20],0
same,Corn plant response rating,corn (Zea mays); [21],0
same,Velvetleaf plant response rating,[10]; [14],45
same,"Plant response rating, Velvetleaf",[10]; [15],98
same,"Plant response rating, Velvetleaf",[10]; [16],100
same,"Plant response rating, Velvetleaf",[10]; [17],80
same,"Plant response rating, Velvetleaf",[10]; [18],85
same,"Plant response rating, Velvetleaf",[10]; [19],90
same,Velvetleaf plant response rating,[10]; [20],95
same,Velvetleaf plant response rating,[10]; [21],90
same,"Foxtail, Giant plant response rating",[11]; [14],20
same,"Plant response rating, Foxtail, Giant",[11]; [15],75
same,"Plant response rating, Foxtail, Giant",[11]; [16],90
same,"Plant response rating, Foxtail, Giant",[11]; [17],70
same,"Plant response rating, Foxtail, Giant",[11]; [18],80
same,"Plant response rating, Foxtail, Giant",[11]; [19],75
same,"Foxtail, Giant plant response rating",[11]; [20],90
same,"Foxtail, Giant plant response rating",[11]; [21],55
same,Johnsongrass plant response rating,[12]; [14],5
same,"Plant response rating, Johnsongrass",[12]; [15],10
same,"Plant response rating, Johnsongrass",[12]; [16],10
same,"Plant response rating, Johnsongrass",[12]; [17],0
same,"Plant response rating, Johnsongrass",[12]; [18],0
same,"Plant response rating, Johnsongrass",[12]; [19],5
same,Johnsongrass plant response rating,[12]; [20],10
same,Johnsongrass plant response rating,[12]; [21],5
same,"Oat, Wild plant response rating",[13]; [14],45
same,"Plant response rating, Oat, Wild",[13]; [15],60
same,"Plant response rating, Oat, Wild",[13]; [16],85
same,"Oat, Wild plant response rating",[13]; [21],50
same,Kochia plant response rating,kochia (Kochia scoparia); [14],50
same,"Plant response rating, Kochia",kochia (Kochia scoparia); [15],90
same,"Plant response rating, Kochia",kochia (Kochia scoparia); [16],95
same,Kochia plant response rating,kochia (Kochia scoparia); [21],90
